Laboratory results reported in patent publication US20100040615A1, “Digalactolipidic Antigen Exposed on the Surface of Apicomplex Parasites, and Diagnostic and Therapeutic Use Thereof” (COMMISSARIAT A L'ENERGIE ATOMIQUE, priority 2007, published 2010).

Experiment: Immunization of animals with purified galactolipid, sera tested for antibodies
Assay type: in vivo, rabbits and rat
Conditions: five immunizations, Freund's adjuvant, sera taken at D57
Procedure: Two rabbits and one rat were immunized with purified DGDG ([…]), according to the following protocol: • a first immunization (D0) by multisite subcutaneous injection (total volume of 1 ml) of 0.5 mg of antigen in 0.5 ml of a solution of NaCl (0.9%), emulsified in 0.5 ml of complete Freund's adjuvant, • a second immunization (D10) by subcutaneous (1 ml) and intramuscular (0.5 ml) injection of 0.5 mg of antigen in 0.75 ml of a solution of NaCl (0.9%), emulsified in 0.75 ml of incomplete Freund's adjuvant, • a third immunization (D21) by subcutaneous (1 ml) and intramuscular (0.5 ml) injection of 0.5 mg of antigen in 0.75 ml of a solution of NaCl (0.9%), emulsified in 0.75 ml of incomplete Freund's adjuvant, • a fourth immunization (D36) by intramuscular (0.5 ml) and intravenous (0.5 ml) injection: 0.17 mg of antigen in 0.25 ml of a solution of NaCl (0.9%), emulsified in 0.25 ml of incomplete Freund's adjuvant, injected intramuscularly, and 0.33 mg of antigen in 0.5 ml of a solution of NaCl (0.9%), injected intravenously, and • a fifth immunization (D50) by intramuscular (0.5 ml) and intravenous (0.5 ml) injection: 0.17 mg of antigen in 0.25 ml of a solution of NaCl (0.9%), emulsified in 0.25 ml of incomplete Freund's adjuvant, injected intramuscularly, and 0.33 mg of antigen in 0.5 ml of a solution of NaCl (0.9%), injected intravenously. […]

Substance | induction of active serum (antibodies against the immunizing lipid)
monogalactosyldiacylglycerol [MGDG] | did not make it possible to obtain active serum
1,2-diacyl-(α-D-galactopyranosyl-(1→6)-β-D-galactopyranosyl-(1′→3))-sn-glycerol [DGDG] | made it possible to obtain active sera containing antibodies that recognize DGDG
